Results reported in US20030083202A1, “Roots-inducing agent of plants and its treatment method” (priority 2001, published 2003).

test system: cut stems of chrysanthemums; experiment: Roots-inducing and fixation-stimulating actions in cut stems of chrysanthemums (leaf spray); assay type: in vivo; design: Index for roots-induction, Total indexes: scale not given here; settings: 5 ppm water solution sprayed once onto leaves; 50th day; 8 cuttings
Excerpt: Stems of chrysanthemums were cut out by 5 cm from the part at 5-10 cm from the top to prepare cuttings with 2 leaves. The water solution of the tested compound (5 ppm) was sprayed once in a misty manner through an mascot spray onto the surface of leaves so that the surface got wet uniformly for each 8 cuttings. The cuttings in the pots were grew in a cabinet where the temperature was controlled in the range of 15 (C at lowest at night to 30 (C at highest in the daytime. Water was supplied appropriately according to the extent of dryness of soil during the cultivation of plants.
On the 50th day after the tested compound was sprayed, roots-induction of each cutting was checked by diggings up, and its extent was shown as an index for each rank.

SMILES | Index for roots-induction, cutting 1 | Index for roots-induction, cutting 2 | Index for roots-induction, cutting 3 | Index for roots-induction, cutting 4 | Index for roots-induction, cutting 5 | Index for roots-induction, cutting 6 | Index for roots-induction, cutting 7 | Index for roots-induction, cutting 8
CCOC(=O)Cc1c[nH]c2cccc(Cl)c12 [4-Cl-IAA Et] | 3 (The cuttings with 20 or more roots per a cutting) | 3 (The cuttings with 20 or more roots per a cutting) | 3 (The cuttings with 20 or more roots per a cutting) | 3 (The cuttings with 20 or more roots per a cutting) | 3 (The cuttings with 20 or more roots per a cutting) | 2 (The cuttings with 10-19 roots per a cutting) | 1 (The cuttings with 5-9 roots per a cutting) | 0 (The cuttings with less than 4 roots (including no roots))
C=CCOC(=O)Cc1c[nH]c2cccc(Cl)c12 [4-Cl-IAA Ally] | 3 (The cuttings with 20 or more roots per a cutting) | 3 (The cuttings with 20 or more roots per a cutting) | 2 (The cuttings with 10-19 roots per a cutting) | 2 (The cuttings with 10-19 roots per a cutting) | 2 (The cuttings with 10-19 roots per a cutting) | 1 (The cuttings with 5-9 roots per a cutting) | 1 (The cuttings with 5-9 roots per a cutting) | 0 (The cuttings with less than 4 roots (including no roots))
CCCOC(=O)Cc1c[nH]c2cccc(Cl)c12 [4-Cl-IAA I-Pr] | 3 (The cuttings with 20 or more roots per a cutting) | 3 (The cuttings with 20 or more roots per a cutting) | 2 (The cuttings with 10-19 roots per a cutting) | 2 (The cuttings with 10-19 roots per a cutting) | 2 (The cuttings with 10-19 roots per a cutting) | 2 (The cuttings with 10-19 roots per a cutting) | 1 (The cuttings with 5-9 roots per a cutting) | 1 (The cuttings with 5-9 roots per a cutting)
CCCCCOC(=O)Cc1c[nH]c2cccc(Cl)c12 [4-Cl-IAA pentyl] | 2 (The cuttings with 10-19 roots per a cutting) | 2 (The cuttings with 10-19 roots per a cutting) | 2 (The cuttings with 10-19 roots per a cutting) | 2 (The cuttings with 10-19 roots per a cutting) | 1 (The cuttings with 5-9 roots per a cutting) | 1 (The cuttings with 5-9 roots per a cutting) | 0 (The cuttings with less than 4 roots (including no roots)) | 0 (The cuttings with less than 4 roots (including no roots))
CCC(C)OC(=O)Cc1c[nH]c2cccc(Cl)c12 (racemic) [4-Cl-IAA 2-Bu] | 2 (The cuttings with 10-19 roots per a cutting) | 2 (The cuttings with 10-19 roots per a cutting) | 2 (The cuttings with 10-19 roots per a cutting) | 2 (The cuttings with 10-19 roots per a cutting) | 1 (The cuttings with 5-9 roots per a cutting) | 1 (The cuttings with 5-9 roots per a cutting) | 0 (The cuttings with less than 4 roots (including no roots)) | 0 (The cuttings with less than 4 roots (including no roots))
CC(C)OC(=O)Cc1c[nH]c2cccc(Cl)c12 [4-Cl-IAA 2-Pr] | 2 (The cuttings with 10-19 roots per a cutting) | 2 (The cuttings with 10-19 roots per a cutting) | 2 (The cuttings with 10-19 roots per a cutting) | 2 (The cuttings with 10-19 roots per a cutting) | 2 (The cuttings with 10-19 roots per a cutting) | 1 (The cuttings with 5-9 roots per a cutting) | 0 (The cuttings with less than 4 roots (including no roots)) | 0 (The cuttings with less than 4 roots (including no roots))
CCCCOC(=O)Cc1c[nH]c2cccc(Cl)c12 [4-Cl-IAA 1-Bu] | 2 (The cuttings with 10-19 roots per a cutting) | 2 (The cuttings with 10-19 roots per a cutting) | 2 (The cuttings with 10-19 roots per a cutting) | 2 (The cuttings with 10-19 roots per a cutting) | 1 (The cuttings with 5-9 roots per a cutting) | 1 (The cuttings with 5-9 roots per a cutting) | 0 (The cuttings with less than 4 roots (including no roots)) | 0 (The cuttings with less than 4 roots (including no roots))
COC(=O)Cc1c[nH]c2cccc(Cl)c12 [4-Cl-IAA Me] | 3 (The cuttings with 20 or more roots per a cutting) | 3 (The cuttings with 20 or more roots per a cutting) | 3 (The cuttings with 20 or more roots per a cutting) | 2 (The cuttings with 10-19 roots per a cutting) | 2 (The cuttings with 10-19 roots per a cutting) | 2 (The cuttings with 10-19 roots per a cutting) | 0 (The cuttings with less than 4 roots (including no roots)) | 0 (The cuttings with less than 4 roots (including no roots))
CC(C)COC(=O)Cc1c[nH]c2cccc(Cl)c12 [4-Cl-IAA isoBu] | 2 (The cuttings with 10-19 roots per a cutting) | 2 (The cuttings with 10-19 roots per a cutting) | 2 (The cuttings with 10-19 roots per a cutting) | 1 (The cuttings with 5-9 roots per a cutting) | 1 (The cuttings with 5-9 roots per a cutting) | 0 (The cuttings with less than 4 roots (including no roots)) | 0 (The cuttings with less than 4 roots (including no roots)) | 0 (The cuttings with less than 4 roots (including no roots))

same assay, conditions: sum of the indexes of 8 cuttings; 5 ppm spray; 50th day; non-treatment 7

SMILES | Index for roots-induction, Total indexes
CCOC(=O)Cc1c[nH]c2cccc(Cl)c12 [4-Cl-IAA Et] | 18
C=CCOC(=O)Cc1c[nH]c2cccc(Cl)c12 [4-Cl-IAA Ally] | 14
CCCOC(=O)Cc1c[nH]c2cccc(Cl)c12 [4-Cl-IAA I-Pr] | 16
CCCCCOC(=O)Cc1c[nH]c2cccc(Cl)c12 [4-Cl-IAA pentyl] | 10
CCC(C)OC(=O)Cc1c[nH]c2cccc(Cl)c12 (racemic) [4-Cl-IAA 2-Bu] | 10
CC(C)OC(=O)Cc1c[nH]c2cccc(Cl)c12 [4-Cl-IAA 2-Pr] | 11
CCCCOC(=O)Cc1c[nH]c2cccc(Cl)c12 [4-Cl-IAA 1-Bu] | 10
COC(=O)Cc1c[nH]c2cccc(Cl)c12 [4-Cl-IAA Me] | 15
CC(C)COC(=O)Cc1c[nH]c2cccc(Cl)c12 [4-Cl-IAA isoBu] | 8
